Source: patent US20050070462A1, “Method for stabilising of nucleic acids” (Intercell AG, priority 2001, published 2005)
Ends that are not written are not given here.

Assays:
[1] = system: peptide-specific IFN-γ-producing T cells (TRP-2181-188); experiment: IFN-γ ELISPOT of PBMCs at day 7 after injection with TRP-2181-188 and KLK (Example 7); format: in vivo, Mice C57Bl/6; settings: TRP-2181-188 alone or with a single adjuvant
[2] = system: OVA257-264-specific IFN-γ producing T cells; experiment: IFN-γ ELISPOT of PBMCs at day 7 after injection with OVA257-264 and KLK (Example 6); format: in vivo, Mice C57Bl/6; settings: injected with OVA257-264, single adjuvant
[3] = system: TRP-2181-188-specific immune responses; experiment: IFN-γ ELISPOT of lymph node cells after footpad injection with TRP-2181-188 (Examples 2 and 3); format: in vivo, Mice C57Bl/6; settings: injected with TRP-2181-188 and co-injection of poly-L-arginine 100 μg/mouse; ODN 5 nmol/mouse
[4] = system: TRP-2181-188-specific immune responses; experiment: IFN-γ ELISPOT of spleen cells at day 6, 49 and 98 after injection with TRP-2181-188 (Example 5); format: in vivo, Mice C57Bl/6; settings: co-injection of TRP-2181-188, pR and ODN, day 6, day 49, day 98 after single injection, compared to TRP-2181-188 with pR or CpG 1668b
[5] = system: OVA257-264-specific immune responses; experiment: IFN-γ ELISPOT of popliteal lymph node cells 4 days after footpad injection with OVA257-264 (Example 1); format: in vivo, Mice C57Bl/6; settings: injected with OVA257-264 and co-injection of poly-L-arginine 100 μg/mouse; ODN 5 nmol/mouse; day 4
Protocol: • Mice C57Bl/6 (Harlan/Olac) • Peptide OVA257-264-Peptide (SIINFEKL), a MHC class I (H-2 Kb)-restricted epitope of chicken ovalbumin (Rotzschke et al., 1991), synthesized by standard solid phase F-moc synthesis, HPLC purified and analysed by mass spectroscopy for purity • Dose: 300 μg/mouse • Poly-L-arginine (pR) Poly-L-arginine with an average degree of polymerization of 43 arginine residues; SIGMA chemicals • Dose: 100 μg/mouse • CpG-ODN 1668 thiophosphate substituted ODNs containing CpG-motif: tcc atg acg ttc ctg atg ct, were synthesized by Purimex GmbH, Göttingen. • Dose: 5 nmol/mouse • CpG-ODN 1668 b ODNs containing CpG-motif (not substituted with thiophospate): tcc atg acg ttc ctg atg ct, were synthesized by Purimex GmbH, Göttingen. • Dose: 5 nmol/mouse. Experimental Groups (4 Mice Per Group) • 1. OVA257-264+pR • 2. OVA257-264+CpG-ODN 1668 • 3. OVA257-264+CpG-ODN 1668 b • 4. OVA257-264+CPG-ODN 1668+pR • 5. OVA257-264+CPG-ODN 1668 b+pR. […] This method is a widely used procedure allowing the quantification of antigen-specific T cells. […] Spots representing single IFN-γ producing T cells were counted and the number of background spots was substracted from all samples. The high number of spots detected after the stimulation with Con A (data not shown) indicates a good condition of the used lymphocytes. […]

serum DNAses = experiment: Degradation of DNA-plasmid pSP65 by serum DNAses, agarose gel (Example 8); format: in vitro ADME; settings: incubated with serum from naïve mice, 1 h at 37° C., presence of poly-L-arginine 2.4 μg
Protocol: To investigate the protective effect of pR in preventing the degradation of DNA by DNAses the following in vitro experiment was performed. To show a possible in vivo relevance serum was used as source of DNases.
The DNA-plasmid pSP65 (1.58 μg/2 μl) was incubated with serum (8 μl) from naïve mice in the presence or absence of poly-L-arginine (2.4 μg/2.4 μl) for 1 h at 37° C. Addition of heparin (1.6 U/1.6 μl) for 20 min at RT was used for the dissociation of DNA/pR-complexes allowing DNA to migrate into the gel. […] As control a 100 bp DNA marker (GIBCO BRL) was used.

[6] = system: TRP-2181-188-specific immune responses; experiment: IFN-γ ELISPOT of spleen cells at day 40 after injection with TRP-2181-188 (Example 4); format: in vivo, Mice C57Bl/6; settings: injected with TRP-2181-188, single adjuvant, compared to TRP-2181-188 alone

Substance: KLKLLLLLKLK—COOH (KLKLLLLLKLK-OH) [synthetic peptide containing KLK-motifs separated by a linker of hydrophobic amino acids]
- peptide-specific IFN-γ-production (PBMCs) [1]: no peptide-specific IFN-γ-production
- peptide-specific IFN-γ-production (PBMCs) [2]: no peptide-specific IFN-γ-production

Substance: U-ODN 13b: ODNs containing deoxy-Uridine monophosphate (not substituted with thiophospate): tcc atg acu ttc ctg atg ct (DNA TCCATGACUTTCCTGATGCT; DNA, all phosphodiester, T or U not given here; further chemistry not fully specified)
- TRP-2181-188-specific immune response (IFN-γ-producing lymph node cells) [3]: only upon co-injection of poly-L-arginine a strong immune response was induced

Substance: CpG-ODN 1668 b: ODNs containing CpG-motif (not substituted with thiophospate): tcc atg acg ttc ctg atg ct (DNA TCCATGACGTTCCTGATGCT; unmodified DNA)
- peptide-specific IFN-g producing cells (spleen) ([4]; listed as CpG 1668 b): potent and long lasting immune stimulatory effect
- peptide-specific IFN-g producing cells (spleen) ([4]; listed as CpG 1668b): significantly higher numbers of peptide-specific IFN-g producing cells
- OVA257-264-specific immune response (IFN-γ-producing cells/1×10^6 lymph node cells) [5]: only upon co-injection of poly-L-arginine a high immune response was induced

Substance: TRP-2181-188: VYDFFVWL, a MHC class I (H-2 Kb)-restricted epitope of mouse tyrosinase related protein-2 [reference compound]
- peptide-specific IFN-γ-production (PBMCs) [1]: no peptide-specific IFN-γ-production

Substance: Poly-L-arginine [pR]
- degradation of pSP65 DNA by serum DNases (agarose gel band pattern) (serum DNAses): prevented
- TRP-2181-188-specific immune response (IFN-γ-producing spleen cells) [6]: enhances TRP-2181-188-specific immune responses
